In DBAASP:
Converted amounts (≈) assume the structure as drawn. “And” between values parts separate entries of the source, which are not always exact repeats. Equal values may be shown once.

Columns and labels:
Experiment in all cases: ≥ marks a high value that may be exact or a test limit, other limits are often not marked, values filed in µg/mL are converted to µM
Escherichia coli = tested on: Escherichia coli
[1] = tested on: Pseudomonas aeruginosa ATCC 27853
[2] = tested on: Aspergillus flavus KCTC 1375
Enterococcus faecium = tested on: Enterococcus faecium
[3] = tested on: Escherichia coli O157:H7 ATCC 43895
Staphylococcus aureus = tested on: Staphylococcus aureus
Pseudomonas aeruginosa = tested on: Pseudomonas aeruginosa
[4] = tested on: Enterococcus faecium ATCC 19434
[5] = tested on: Staphylococcus aureus ATCC 25923
[6] = tested on: Malassezia furfur KCTC 7744
[7] = tested on: Candida albicans ATCC 90028
Staphylococcus aureus 4 = tested on: Staphylococcus aureus 4
Pseudomonas aeruginosa 2 = tested on: Pseudomonas aeruginosa 2
Pseudomonas aeruginosa 1 = tested on: Pseudomonas aeruginosa 1
Escherichia coli O157 = tested on: Escherichia coli O157
Staphylococcus aureus 1 = tested on: Staphylococcus aureus 1
Pseudomonas aeruginosa 5 = tested on: Pseudomonas aeruginosa 5
Acinetobacter junii RT-4 = tested on: Acinetobacter junii RT-4
[8] = tested on: Staphylococcus aureus Cowan 1
[9] = tested on: Pseudomonas aeruginosa ATCC 15692
[10] = tested on: Acinetobacter baumannii ATCC 19606
Escherichia coli D21 = tested on: Escherichia coli D21
[11] = tested on: Streptococcus pyogenes ATCC 21547
[12] = tested on: Staphylococcus epidermidis ATCC 12228
[13] = tested on: Enterococcus faecalis ATCC 29212
[14] = tested on: Yersinia pseudotuberculosis YPIII
[15] = tested on: Candida albicans ATCC 10231
Saccharomyces cerevisiae = tested on: Saccharomyces cerevisiae
Bacillus megaterium Bm11 = tested on: Bacillus megaterium Bm11
[16] = tested on: Schizosaccharomyces pombe
[17] = tested on: Escherichia coli ATCC 25922
[18] = tested on: Pseudomonas syringae pv. tabaci 1918NCPPB
Staphylococcus capitis 1 = tested on: Staphylococcus capitis 1
[19] = tested on: Salmonella enterica subsp. enterica serovar Choleraesuis CMCC 50020
Bacillus subtilis 1A751 = tested on: Bacillus subtilis 1A751
Acinetobacter baumannii = tested on: Acinetobacter baumannii
[20] = tested on: Staphylococcus aureus ATCC 8530
[21] = tested on: Streptococcus pyogenes ATCC 19615
Enterococcus faecalis = tested on: Enterococcus faecalis
[22] = tested on: Saccharomyces cerevisiae PEP 4/3l
[23] = tested on: Escherichia coli DH5alpha
[24] = tested on: Staphylococcus aureus ATCC 43300
[25] = tested on: Listeria monocytogenes NCTC 7973
Salmonella typhimurium = tested on: Salmonella typhimurium
Escherichia coli W160-37 = tested on: Escherichia coli W160-37
[26] = tested on: Staphylococcus aureus SAP 0017
Corynebacterium xerosis = tested on: Corynebacterium xerosis
[27] = tested on: Staphylococcus haemolyticus
[28] = tested on: Staphylococcus epidermidis
Klebsiella pneumoniae = tested on: Klebsiella pneumoniae

Q: Which results are given for `CC(C)[C@H](NC(=O)[C@H](Cc1cnc[nH]1)NC(=O)[C@H](C)NC(=O)[C@H](C)NC(=O)[C@H](CCCCN)NC(=O)[C@H](CCCCN)NC(=O)[C@H](Cc1ccccc1)NC(=O)[C@H](Cc1ccccc1)NC(=O)[C@H](CO)NC(=O)CNC(=O)[C@H](Cc1c[nH]c2ccccc12)NC(=O)CN)C(=O)NCC(=O)N[C@@H](CCCCN)C(=O)N[C@@H](Cc1cnc[nH]1)C(=O)N[C@H](C(=O)NCC(=O)N[C@@H](CCCCN)C(=O)N[C@@H](C)C(N)=O)C(C)C` [GWGSFFKKAAHVGKHVGKA]?
A: MIC (Escherichia coli): 28.3 µM (≈ 56.9 µg/mL); MIC [1]: 20 µM (≈ 40.2 µg/mL); MIC [2]: 28.3 µM (≈ 56.9 µg/mL); MIC (Enterococcus faecium): 28.3 µM (≈ 56.9 µg/mL); MIC [3]: 20 µM (≈ 40.2 µg/mL); MIC (Staphylococcus aureus): 14.1 µM (≈ 28.4 µg/mL); MIC (Pseudomonas aeruginosa): 28.3 µM (≈ 56.9 µg/mL); MIC [4]: 28.3 µM (≈ 56.9 µg/mL); MIC [5]: 20 µM (≈ 40.2 µg/mL); MIC [6]: ≥ 40 µM; MIC [7]: ≥ 40 µM

Q: With `CC[C@H](C)[C@H](NC(=O)[C@H](CC(C)C)NC(=O)[C@H](CCCN=C(N)N)NC(=O)[C@@H](NC(=O)[C@H](C)NC(=O)[C@H](CCCCN)NC(=O)[C@H](CCCN=C(N)N)NC(=O)[C@H](CC(C)C)NC(=O)[C@@H](N)CCCN=C(N)N)C(C)C)C(=O)N[C@@H](CCCCN)C(=O)O` [RLRKAVRLIK] as the compound, how does the MIC (Staphylococcus aureus 4) read?
A: The MIC was 5 µM (≈ 6.26 µg/mL).

Q: And the MIC (Enterococcus faecium)?
A: Its MIC is 5 µM (≈ 6.26 µg/mL).

Q: And the MIC (Pseudomonas aeruginosa 2)?
A: The MIC was 3.54 µM (≈ 4.43 µg/mL).

Q: And the MIC (Staphylococcus aureus)?
A: The MIC was 14.1 µM (≈ 17.7 µg/mL).

Q: What about the MIC (Pseudomonas aeruginosa) of the same compound?
A: Its MIC is 10 µM (≈ 12.5 µg/mL).

Q: What about the MIC (Pseudomonas aeruginosa 1) of the same compound?
A: The MIC was 5 µM (≈ 6.26 µg/mL).

Q: And the MIC (Escherichia coli O157)?
A: The MIC was 5 µM (≈ 6.26 µg/mL).

Q: What about the MIC (Staphylococcus aureus 1) of the same compound?
A: The MIC was 2.5 µM (≈ 3.13 µg/mL).

Q: What about the MIC (Pseudomonas aeruginosa 5) of the same compound?
A: Its MIC is 2.5 µM (≈ 3.13 µg/mL).

Q: Which MIC (Acinetobacter junii RT-4) does the source give for `CC(C)C[C@H](NC(=O)[C@H](CC(C)C)NC(=O)[C@H](CCCN=C(N)N)NC(=O)CNC(=O)[C@H](CC(C)C)NC(=O)[C@H](CC(C)C)NC(=O)[C@H](CCCCN)NC(=O)[C@H](CO)NC(=O)[C@H](CC(C)C)NC(=O)[C@H](Cc1c[nH]c2ccccc12)NC(=O)[C@H](CCC(N)=O)NC(=O)[C@H](CC(C)C)NC(=O)[C@@H](N)CC(C)C)C(N)=O` [LLQWLSKLLGRLL] here?
A: Its MIC is 24 µM (≈ 37.2 µg/mL).

Q: And the MIC [8]?
A: The MIC was 1.5 µM (≈ 2.33 µg/mL).

Q: And the MIC [9]?
A: Its MIC is 12 µM (≈ 18.6 µg/mL).

Q: And the MIC [10]?
A: The MIC was 12 µM (≈ 18.6 µg/mL).

Q: And the MIC [1]?
A: The MIC was 24 µM (≈ 37.2 µg/mL).

Q: What about the MIC (Escherichia coli D21) of the same compound?
A: The MIC was 12 µM (≈ 18.6 µg/mL).

Q: And the MIC [11]?
A: Its MIC is 6 µM (≈ 9.31 µg/mL).

Q: And the MIC [12]?
A: The MIC was 1.5 µM (≈ 2.33 µg/mL).

Q: And the MIC [13]?
A: Its MIC is 3 µM (≈ 4.66 µg/mL).

Q: And the MIC [14]?
A: The MIC was 3 µM (≈ 4.66 µg/mL).

Q: What about the MIC [15] of the same compound?
A: The MIC was 6 µM (≈ 9.31 µg/mL).

Q: And the MIC (Saccharomyces cerevisiae)?
A: The MIC was 3 µM (≈ 4.66 µg/mL).

Q: What about the MIC [5] of the same compound?
A: Its MIC is 3 µM (≈ 4.66 µg/mL).

Q: What about the MIC (Bacillus megaterium Bm11) of the same compound?
A: Its MIC is 1.5 µM (≈ 2.33 µg/mL).

Q: What about the MIC [16] of the same compound?
A: The MIC was 3 µM (≈ 4.66 µg/mL).

Q: And the MIC [17]?
A: Its MIC is 6 µM (≈ 9.31 µg/mL).

Q: And the MIC [18]?
A: Its MIC is 6 µM (≈ 9.31 µg/mL).

Q: And the MIC (Staphylococcus capitis 1)?
A: Its MIC is 1.5 µM (≈ 2.33 µg/mL).

Q: With `CC[C@H](C)[C@H](NC(=O)[C@H](CCCCN)NC(=O)[C@H](CC(=O)O)NC(=O)[C@H](CC(C)C)NC(=O)[C@@H](NC(=O)[C@H](CC(N)=O)NC(=O)[C@H](CC(C)C)NC(=O)[C@H](Cc1ccccc1)NC(=O)[C@H](Cc1ccccc1)NC(=O)[C@H](CCCCN)NC(=O)[C@H](CCCCN)NC(=O)CNC(=O)[C@H](C)NC(=O)[C@H](CCC(N)=O)NC(=O)[C@H](CCCCN)NC(=O)[C@@H](NC(=O)[C@@H](NC(=O)[C@H](CC(=O)O)NC(=O)[C@H](Cc1c[nH]c2ccccc12)NC(=O)[C@H](CC(C)C)NC(=O)CN)[C@@H](C)O)[C@@H](C)CC)C(C)C)C(=O)N[C@@H](CCCN=C(N)N)C(=O)N[C@H]1CSSC[C@@H](C(=O)N[C@@H](CCCN=C(N)N)C(=O)N[C@H](C(=O)O)[C@@H](C)O)NC(=O)CNC(=O)CNC(=O)[C@H](C)NC(=O)[C@H](C(C)C)NC(=O)[C@H](CCCCN)NC1=O` [GLWDTIKQAGKKFFLNVLDKIRCKVAGGCRT] as the compound, how does the MIC [5] read?
A: Its MIC is 4.61 µM (≈ 16 µg/mL).

Q: And the MIC [17]?
A: Its MIC is 4.61 µM (≈ 16 µg/mL).

Q: And the MIC [19]?
A: Its MIC is ≥ 36.9 µM.

Q: What about the MIC (Bacillus subtilis 1A751) of the same compound?
A: The MIC was 1.15 µM (≈ 4 µg/mL).

Q: Which results are given for `CC[C@H](C)[C@H](N)C(=O)N[C@@H](CC(C)C)C(=O)N[C@@H](C)C(=O)N[C@@H](Cc1c[nH]c2ccccc12)C(=O)N[C@@H](CCCCN)C(=O)N[C@@H](Cc1c[nH]c2ccccc12)C(=O)N[C@@H](C)C(=O)N[C@@H](Cc1c[nH]c2ccccc12)C(=O)N[C@@H](Cc1c[nH]c2ccccc12)C(=O)N[C@@H](C)C(=O)N[C@@H](Cc1c[nH]c2ccccc12)C(=O)N[C@@H](CCCN=C(N)N)C(=O)N[C@@H](CCCN=C(N)N)C(N)=O` [ILAWKWAWWAWRR]?
A: MIC (Escherichia coli): 4.37 µM (≈ 8 µg/mL); MIC (Acinetobacter baumannii): 5.6 µM (≈ 10.2 µg/mL); MIC [20]: 1.55 µM (≈ 2.83 µg/mL); MIC [21]: 0.547 µM (≈ 0.999 µg/mL); MIC (Enterococcus faecalis): 2 µM (≈ 3.66 µg/mL); MIC [22]: 6.7 µM (≈ 12.2 µg/mL); MIC [23]: ≥ 45 µM; MIC (Pseudomonas aeruginosa): > 100 µM; MIC [24]: 14.7 µM (≈ 26.9 µg/mL); MIC [13]: 4.37 µM (≈ 8 µg/mL); MIC [25]: 0.547 µM (≈ 0.999 µg/mL); MIC (Salmonella typhimurium): ≥ 50 µM; MIC [5]: 2.19 µM (≈ 4 µg/mL); MIC (Escherichia coli W160-37): 12.2 µM (≈ 22.3 µg/mL); MIC [26]: 2.19 µM (≈ 4 µg/mL); MIC (Corynebacterium xerosis): 0.547 µM (≈ 0.999 µg/mL); MIC [27]: 1.09 µM and 0.547 µM; MIC [17]: 14.7 µM (≈ 26.9 µg/mL); MIC [28]: 1.09 µM (≈ 2 µg/mL); MIC (Klebsiella pneumoniae): 50 µM (≈ 91.4 µg/mL)
